In ChEMBL document CHEMBL1759975, “Development of selective and reversible pyrazoline based MAO-B inhibitors: virtual screening, synthesis and biological evaluation” (Bioorg Med Chem Lett, 2011) one finds Ki data, which are given here for ten compounds.

Assay [1] deals with T1, Amine oxidase [flavin-containing] A (Rattus norvegicus, UniProt P21396).
T1 sequence (P21396 whole entry): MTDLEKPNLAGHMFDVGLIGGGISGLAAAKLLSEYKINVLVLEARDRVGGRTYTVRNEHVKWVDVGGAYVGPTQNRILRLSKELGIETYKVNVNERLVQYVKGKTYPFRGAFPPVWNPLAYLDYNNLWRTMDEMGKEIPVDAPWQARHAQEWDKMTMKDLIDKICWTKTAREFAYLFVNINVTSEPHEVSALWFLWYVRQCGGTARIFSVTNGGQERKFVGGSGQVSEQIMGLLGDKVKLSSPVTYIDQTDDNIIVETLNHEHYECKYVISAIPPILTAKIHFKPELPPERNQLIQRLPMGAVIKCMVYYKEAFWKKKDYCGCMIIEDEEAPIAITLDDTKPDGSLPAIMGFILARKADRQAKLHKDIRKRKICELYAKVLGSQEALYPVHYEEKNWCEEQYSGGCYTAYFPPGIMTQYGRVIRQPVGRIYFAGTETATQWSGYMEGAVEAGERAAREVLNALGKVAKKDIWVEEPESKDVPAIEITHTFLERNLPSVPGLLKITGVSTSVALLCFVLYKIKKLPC
As to the kind of experiment: Competitive inhibition of rat liver MAO-A after 60 mins using p-tyramine as substrate by spectrophotometry.

Assay [2] concerns the target T2, Amine oxidase [flavin-containing] A (Homo sapiens, UniProt P21397).
T2 sequence (P21397 whole entry): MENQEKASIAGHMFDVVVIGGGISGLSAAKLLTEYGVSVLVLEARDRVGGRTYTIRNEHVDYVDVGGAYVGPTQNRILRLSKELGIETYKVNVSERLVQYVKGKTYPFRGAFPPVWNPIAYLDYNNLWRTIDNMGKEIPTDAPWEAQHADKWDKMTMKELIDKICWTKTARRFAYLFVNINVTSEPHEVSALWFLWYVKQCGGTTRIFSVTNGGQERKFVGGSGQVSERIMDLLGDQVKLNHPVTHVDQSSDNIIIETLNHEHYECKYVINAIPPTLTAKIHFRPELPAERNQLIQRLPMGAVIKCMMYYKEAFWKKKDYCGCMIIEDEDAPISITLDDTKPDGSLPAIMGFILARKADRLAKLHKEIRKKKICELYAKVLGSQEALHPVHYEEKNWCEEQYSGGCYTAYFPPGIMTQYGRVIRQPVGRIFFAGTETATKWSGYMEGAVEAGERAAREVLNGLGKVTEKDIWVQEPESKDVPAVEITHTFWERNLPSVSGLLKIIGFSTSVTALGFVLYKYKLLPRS
As to the kind of experiment: Competitive inhibition of human recombinant MAO-A after 60 mins using p-tyramine as substrate by spectrophotometry.

Assay [3] concerns the target T3, Amine oxidase [flavin-containing] B (Rattus norvegicus, UniProt P19643).
T3 sequence (P19643 whole entry): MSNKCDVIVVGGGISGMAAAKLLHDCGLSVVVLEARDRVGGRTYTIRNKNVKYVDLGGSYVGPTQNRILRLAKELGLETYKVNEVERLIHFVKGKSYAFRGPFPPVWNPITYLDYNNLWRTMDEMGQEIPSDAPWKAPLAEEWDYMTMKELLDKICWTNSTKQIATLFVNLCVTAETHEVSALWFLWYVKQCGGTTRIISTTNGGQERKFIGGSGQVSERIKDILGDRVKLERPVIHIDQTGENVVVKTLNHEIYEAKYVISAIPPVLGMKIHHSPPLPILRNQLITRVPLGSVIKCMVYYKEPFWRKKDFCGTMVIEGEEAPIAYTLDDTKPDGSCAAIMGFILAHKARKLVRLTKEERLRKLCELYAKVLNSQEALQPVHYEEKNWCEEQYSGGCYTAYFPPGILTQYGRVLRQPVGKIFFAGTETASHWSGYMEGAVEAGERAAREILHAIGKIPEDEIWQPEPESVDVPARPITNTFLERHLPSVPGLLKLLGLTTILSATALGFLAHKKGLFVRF
As to the kind of experiment: Competitive inhibition of rat liver MAO-B after 60 mins using p-tyramine as substrate by spectrophotometry.

The target of assay [4] is T4, Amine oxidase [flavin-containing] B (Homo sapiens, UniProt P27338).
T4 sequence (P27338 whole entry): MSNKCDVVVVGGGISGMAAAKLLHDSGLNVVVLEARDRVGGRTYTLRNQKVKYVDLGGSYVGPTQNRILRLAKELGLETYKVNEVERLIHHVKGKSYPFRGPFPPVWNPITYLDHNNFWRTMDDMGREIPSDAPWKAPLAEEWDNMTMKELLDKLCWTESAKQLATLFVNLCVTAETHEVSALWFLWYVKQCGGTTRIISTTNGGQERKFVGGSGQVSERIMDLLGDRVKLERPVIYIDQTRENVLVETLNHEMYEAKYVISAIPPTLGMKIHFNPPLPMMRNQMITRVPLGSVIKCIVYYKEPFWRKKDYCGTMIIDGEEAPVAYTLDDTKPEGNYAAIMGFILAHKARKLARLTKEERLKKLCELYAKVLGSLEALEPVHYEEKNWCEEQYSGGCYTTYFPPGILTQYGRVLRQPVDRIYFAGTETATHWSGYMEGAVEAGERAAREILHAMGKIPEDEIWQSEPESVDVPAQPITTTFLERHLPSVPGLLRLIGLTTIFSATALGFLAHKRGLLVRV
Description: Competitive inhibition of human recombinant MAO-B after 60 mins using p-tyramine as substrate by spectrophotometry

Consider `Clc1ccc(C2CC(c3c4ccccc4cc4ccccc34)=NN2)cc1` (stereo not drawn), for which the Ki in assay [1] came out at 320 nM; in assay [2] it was 281 nM; in assay [3], 2.1 nM; in assay [4], 1.8 nM.

Regarding `O=[N+]([O-])c1cccc(C2CC(c3c4ccccc4cc4ccccc34)=NN2)c1` (stereo not drawn), the Ki came to 43.9 nM in assay [1], 32.2 nM in assay [2], 0.45 nM in assay [3] and 0.31 nM in assay [4].

With `Cc1ccc(C2CC(c3c4ccccc4cc4ccccc34)=NN2)cc1` (stereo not drawn), the inhibition constant (Ki) in assay [1] worked out at 389 nM; in assay [2], 250 nM; in assay [3] it was 3.8 nM; in assay [4], 3.56 nM.

For the compound `Oc1ccc(C2CC(c3c4ccccc4cc4ccccc34)=NN2)cc1` (stereo not drawn), the Ki in assay [1] stood at 385 nM; in assay [2], 225 nM; in assay [3], 6.75 nM; in assay [4], 7.51 nM.

`c1ccc(C2CC(c3c4ccccc4cc4ccccc34)=NN2)nc1` (stereo not drawn): the Ki in assay [1] came to 242 nM; in assay [2], 205 nM; in assay [3], 9.91 nM; in assay [4], 5.75 nM.

In the case of `O=[N+]([O-])c1ccc(C2CC(c3c4ccccc4cc4ccccc34)=NN2)cc1` (stereo not drawn), the inhibition constant (Ki) was 20.1 nM in assay [1], 17.1 nM in assay [2], 2.3 nM in assay [3] and 1.15 nM in assay [4].

Regarding `Oc1ccc(C2CC(c3c4ccccc4cc4ccccc34)=NN2)c(O)c1` (stereo not drawn), the Ki in assay [1] turned out to be 95.6 nM; in assay [2], 81.5 nM; in assay [3], 4.77 nM; in assay [4] it was 5.54 nM.

Take `c1ccc(C2CC(c3c4ccccc4cc4ccccc34)=NN2)cc1` (stereo not drawn): the inhibitory constant (Ki) stood at 397 nM in assay [1], 332 nM in assay [2], 3.43 nM in assay [3] and 4.21 nM in assay [4].

As to `Oc1ccccc1C1CC(c2c3ccccc3cc3ccccc23)=NN1` (stereo not drawn), the inhibitory constant (Ki) was found to be 77.6 nM in assay [1], 69.9 nM in assay [2], 5.91 nM in assay [3] and 7.35 nM in assay [4].

For `COc1ccc(C2CC(c3c4ccccc4cc4ccccc34)=NN2)cc1` (stereo not drawn), the Ki in assay [1] came out at 230 nM; in assay [2], 301 nM.

One may read the Ki as the dissociation constant of the complex between target and ligand, obtained from inhibition or displacement.
